From patent US20030082787A1, “Plant histidine biosynthetic enzymes” (priority 2001, published 2003)

System: HisA enzyme from Nicotiana Plumbaginifolia
Assay: HisA enzyme activity assay (INT/PMS dye, absorbance at 530 nm)
Type: biochemical
Conditions: partially purified recombinant enzyme expressed in E. coli BL21 (DE3); 0.2 M Triethanolamine pH 8.5, 30° C.; read-out: Km for substrate
Procedure: The HisA enzyme from Nicotiana Plumbaginifolia was partially purified and assayed as follows. A plasmid clone with the cDNA insert in the correct orientation relative to the T7 promoter was transformed into E. coli strain BL21 (DE3) (Studier et al. (1986) J. Mol. Biol. 189:113-130). Cultures are grown in LB medium carbenicillin ([…]) at 28° C. to an optical denisity of 0.44 at 600 nm. Each liter of LB/carbenicillin was inoculated with 20 mL of the overnight culture. These one liter cultures were incubated at 26° C. with agitation for 21 hours. HisA expression was induced as described above. The cells were harvested by centrifugation and frozen at −80° C.
Each gram of cell paste was resuspended in two milliliters of 20 mM Triethanolamine buffer at pH 8.3 containing Complete™ protease inhibitors (Boehringer Mannheim) and 1 mM EDTA. The cells were disrupted by three passes through a microfluidizer and the lysed cell debris was removed by centrifugation. The supernatant was treated with streptomycin sulfate which was added to a final concentration of 1%. […]
HisA enzyme activity was assayed essentially as described by Margolies et al., (1966) J. Biol. Chem. 241:3262-3269. […] Blank reactions containing either no enzyme or no substrate were also prepared to control for background absorbance. […] The absorbance at 530 nm was measured.

## NC(=O)c1ncn([C@@H]2O[C@H](COP(=O)(O)O)[C@@H](O)[C@H]2O)c1N=CN[C@@H]1O[C@H](COP(=O)(O)O)[C@@H](O)[C@H]1O [5′ Profar, N1-[(5′-phospho-b-D-ribosyl)formimino]-5-aminoimidazole-4-carboxamide ribonucleotide]
  Km: 200 µM
